The values below come from the supplement of paper PMC12698765.

Assay [1] has as its system 409B2 hiPSC (iCRISPR Cas9, FRMD7 editing). The experiment in a line: NHEJ-attributed indel frequency relative to solvent control (fold (ratio to mock)); higher = more NHEJ outcomes. Here is the method: (§1)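 Subset screen of 55 drugs tested at 5 concentrations around the effective screening dose, in 409B2 iCRISPR Cas9 hiPSCs editing FRMD7 with a ssDNA donor. Drugs were applied for 24 h. Viability was read by resazurin and editing outcomes by amplicon sequencing (HDR, NHEJ <2 bp microhomology, MMEJ ≥2 bp microhomology). Values are relative to solvent mock controls; two biological replicates.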

The test system is the same in assay [2]. In words: MMEJ-attributed deletion frequency relative to solvent control (fold (ratio to mock)); higher = more MMEJ outcomes. Here is the method: as §1
The test system is the same in assay [3]. The experiment in a line: cell survival relative to solvent control (fold (ratio to mock)); higher = more surviving cells. How it is done:
as §1

Assay [4] shares this test system. In words: HDR (precise edit) frequency relative to solvent control (fold (ratio to mock)); higher = more homology-directed repair outcomes. How it is done:
as §1

The structures appear in SMILES notation. ± gives the standard deviation of the averaged measurements.

`Cc1ccc(NC(=O)c2ccc(CN3CC[C@H](N(C)C)C3)c(C(F)(F)F)c2)cc1Nc1nccc(-c2cncnc2)n1` [Bafetinib (INNO-406)] (in DMSO): the NHEJ-attributed indel frequency is 0.9931 ± 0.002 in assay [1] (2000 nM); 1.004 ± 0.0057 in assay [1] (5000 nM); 1.06 ± 0.025 in assay [1] (10000 nM); 1.03 ± 0.11 in assay [1] (20000 nM); 0.525 in assay [1] (50000 nM). In addition, the MMEJ-attributed deletion frequency in assay [2] (2000 nM) turned out to be 1.04 ± 0.012; in assay [2] (5000 nM), 0.89 ± 0.082; in assay [2] (10000 nM), 1.13 ± 0.045; in assay [2] (20000 nM) it was 1.32 ± 0.11; in assay [2] (50000 nM), 0.621. In addition, the cell survival in assay [3] (2000 nM) is 1.07; in assay [3] (5000 nM), 1.36; in assay [3] (10000 nM), 0.818; in assay [3] (20000 nM) it was 0.096; in assay [3] (50000 nM), 0.0107. The HDR came to 1.04 ± 0.053 in assay [4] (2000 nM); 1.066 ± 0.0049 in assay [4] (5000 nM); 1.03 ± 0.1 in assay [4] (10000 nM); 0.775 ± 0.27 in assay [4] (20000 nM); 0.282 in assay [4] (50000 nM).

Take `CC(=O)O[C@]1(C(C)=O)CC[C@H]2[C@@H]3C=C(Cl)C4=CC(=O)[C@@H]5C[C@@H]5[C@]4(C)[C@H]3CC[C@@]21C` [Cyproterone Acetate] (in DMSO): the NHEJ-attributed indel frequency was 0.962 ± 0.045 in assay [1] (20 nM); 0.9767 ± 0.0039 in assay [1] (50 nM); 0.9929 ± 0.0094 in assay [1] (100 nM); 1.01 ± 0.014 in assay [1] (200 nM); 0.964 ± 0.042 in assay [1] (500 nM). The MMEJ-attributed deletion frequency worked out at 1.18 ± 0.11 in assay [2] (20 nM); 0.986 ± 0.03 in assay [2] (50 nM); 0.9921 ± 0.0047 in assay [2] (100 nM); 0.915 ± 0.022 in assay [2] (200 nM); 0.999 ± 0.017 in assay [2] (500 nM). Also, the cell survival in assay [3] (20 nM) came out at 0.984; in assay [3] (50 nM) it was 1.23; in assay [3] (100 nM), 1.12; in assay [3] (200 nM), 1.09; in assay [3] (500 nM) it was 1.23. In addition, the HDR came to 1.1 ± 0.048 in assay [4] (20 nM); 1.119 ± 0.007 in assay [4] (50 nM); 1.09 ± 0.054 in assay [4] (100 nM); 1.03 ± 0.013 in assay [4] (200 nM); 1.14 ± 0.058 in assay [4] (500 nM).

On to `Cc1c(C(C)C)c(=O)n(-c2ccccc2)n1C` [Propyphenazone (4-Isopropylantipyrine)] (in DMSO), for which the NHEJ-attributed indel frequency came to 1.01 ± 0.013 in assay [1] (200 nM); 0.993 ± 0.022 in assay [1] (500 nM); 0.993 ± 0.041 in assay [1] (1000 nM); 0.995 ± 0.035 in assay [1] (2000 nM); 0.988 ± 0.014 in assay [1] (5000 nM). In addition, the MMEJ-attributed deletion frequency turned out to be 0.984 ± 0.021 in assay [2] (200 nM); 0.969 ± 0.059 in assay [2] (500 nM); 0.881 ± 0.036 in assay [2] (1000 nM); 0.954 ± 0.091 in assay [2] (2000 nM); 0.965 ± 0.06 in assay [2] (5000 nM). For the same compound, the cell survival in assay [3] (200 nM) is 1.03; in assay [3] (500 nM), 1.24; in assay [3] (1000 nM), 1.03; in assay [3] (2000 nM), 1.2; in assay [3] (5000 nM), 1.13. Moreover, the HDR turned out to be 1.04 ± 0.021 in assay [4] (200 nM); 1.11 ± 0.044 in assay [4] (500 nM); 1.1 ± 0.068 in assay [4] (1000 nM); 1.07 ± 0.064 in assay [4] (2000 nM); 1.08 ± 0.031 in assay [4] (5000 nM).

For the compound `CC(=O)O[C@]1(C(C)=O)CC[C@H]2[C@@H]3C=C(C)C4=CC(=O)CC[C@]4(C)[C@H]3CC[C@@]21C` [Megestrol Acetate] (in EtOH), the NHEJ-attributed indel frequency in assay [1] (20 nM) came out at 0.999 ± 0.028; in assay [1] (50 nM), 1.004 ± 0.007; in assay [1] (100 nM), 1.03 ± 0.037; in assay [1] (200 nM), 1 ± 0.045; in assay [1] (500 nM) it was 1.02 ± 0.032. The MMEJ-attributed deletion frequency was found to be 1.01 ± 0.013 in assay [2] (20 nM); 1.16 ± 0.079 in assay [2] (50 nM); 0.9716 ± 0.0036 in assay [2] (100 nM); 1.1 ± 0.091 in assay [2] (200 nM); 0.9348 ± 0.0058 in assay [2] (500 nM). Also, the cell survival was 1.6 in assay [3] (20 nM); 1.46 in assay [3] (50 nM); 1.18 in assay [3] (100 nM); 1.12 in assay [3] (200 nM); 1.05 in assay [3] (500 nM). The HDR amounted to 0.975 ± 0.027 in assay [4] (20 nM); 0.93 ± 0.072 in assay [4] (50 nM); 0.95 ± 0.068 in assay [4] (100 nM); 0.953 ± 0.015 in assay [4] (200 nM); 0.96 ± 0.028 in assay [4] (500 nM).

In the case of `CS(=O)(=O)N1CCN(Cc2cc3nc(-c4cccc5[nH]ncc45)nc(N4CCOCC4)c3s2)CC1` [GDC-0941] (in DMSO), the NHEJ-attributed indel frequency was found to be 0.978 ± 0.0067 in assay [1] (20 nM); 0.99142 ± 0.00057 in assay [1] (50 nM); 0.945 ± 0.042 in assay [1] (100 nM); 0.94 ± 0.041 in assay [1] (200 nM); 0.86 ± 0.063 in assay [1] (500 nM). The MMEJ-attributed deletion frequency in assay [2] (20 nM) was 1.02 ± 0.14; in assay [2] (50 nM) it was 0.875 ± 0.054; in assay [2] (100 nM), 0.874 ± 0.016; in assay [2] (200 nM), 0.926 ± 0.2; in assay [2] (500 nM), 0.887 ± 0.078. In addition, the cell survival in assay [3] (20 nM) came out at 0.924; in assay [3] (50 nM) it was 0.877; in assay [3] (100 nM) it was 0.7; in assay [3] (200 nM), 0.444; in assay [3] (500 nM), 0.15. In addition, the HDR in assay [4] (20 nM) amounted to 1.15 ± 0.048; in assay [4] (50 nM), 1.08 ± 0.0031; in assay [4] (100 nM) it was 1.08 ± 0.075; in assay [4] (200 nM) it was 1.14 ± 0.076; in assay [4] (500 nM), 1.06 ± 0.19.

Take `CN(C)C(=O)Oc1cccc([N+](C)(C)C)c1` [Hodostin] (in DMSO): the NHEJ-attributed indel frequency in assay [1] (2000 nM) stood at 0.983 ± 0.013; in assay [1] (5000 nM), 0.992 ± 0.024; in assay [1] (10000 nM) it was 0.996 ± 0.04; in assay [1] (20000 nM), 0.9928 ± 0.0066; in assay [1] (50000 nM) it was 0.992 ± 0.029. The MMEJ-attributed deletion frequency in assay [2] (2000 nM) was determined as 0.943 ± 0.1; in assay [2] (5000 nM), 0.965 ± 0.13; in assay [2] (10000 nM), 0.922 ± 0.014; in assay [2] (20000 nM) it was 0.944 ± 0.085; in assay [2] (50000 nM), 1.05 ± 0.12. In addition, the cell survival is 0.969 in assay [3] (2000 nM); 1.28 in assay [3] (5000 nM); 1 in assay [3] (10000 nM); 1.14 in assay [3] (20000 nM); 1.29 in assay [3] (50000 nM). Further, the HDR in assay [4] (2000 nM) worked out at 1.13 ± 0.068; in assay [4] (5000 nM) it was 1.1 ± 0.087; in assay [4] (10000 nM), 1.05 ± 0.15; in assay [4] (20000 nM) it was 1.15 ± 0.044; in assay [4] (50000 nM), 1.24 ± 0.054.
